# Experimental data published in ChEMBL document CHEMBL4819004, “Discovery of selective CDK9 degraders with enhancing antiproliferative activity through PROTAC conversion” (Eur J Med Chem, 2021).
# Experiments:
# [1] = test system: B16; test: Antiproliferative activity against mouse B16 cells incubated for 72 hrs by MTT assay; type: functional, cell-based; details: B16, 72 h
# [2] = test system: HCT-116; test: Antiproliferative activity against human HCT-116 cells incubated for 72 hrs by MTT assay; type: functional, cell-based; details: HCT-116, 72 h
# [3] = molecular target: T1, Protein cereblon/Cyclin-dependent kinase 9 (Homo sapiens, UniProt P50750+Q96SW2); test: Protac activity at CRBN/CDK9 in human MV4-11 cells assessed as CDK9 degradation rate at 500 nM incubated for 6 hrs by Western blot assay relative to control; type: cell-based
# Target sequence in this assay (P50750 whole entry, looked up): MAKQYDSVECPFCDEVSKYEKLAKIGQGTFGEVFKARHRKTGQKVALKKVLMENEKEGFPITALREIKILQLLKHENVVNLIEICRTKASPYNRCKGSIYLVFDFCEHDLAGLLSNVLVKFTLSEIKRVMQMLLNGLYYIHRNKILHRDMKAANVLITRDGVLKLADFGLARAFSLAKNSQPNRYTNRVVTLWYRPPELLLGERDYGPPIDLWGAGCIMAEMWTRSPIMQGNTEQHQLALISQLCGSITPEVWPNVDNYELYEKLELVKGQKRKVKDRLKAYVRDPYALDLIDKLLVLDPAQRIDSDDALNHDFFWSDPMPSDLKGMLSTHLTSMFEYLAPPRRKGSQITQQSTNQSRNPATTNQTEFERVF
# Target sequence in this assay (Q96SW2 whole entry, looked up): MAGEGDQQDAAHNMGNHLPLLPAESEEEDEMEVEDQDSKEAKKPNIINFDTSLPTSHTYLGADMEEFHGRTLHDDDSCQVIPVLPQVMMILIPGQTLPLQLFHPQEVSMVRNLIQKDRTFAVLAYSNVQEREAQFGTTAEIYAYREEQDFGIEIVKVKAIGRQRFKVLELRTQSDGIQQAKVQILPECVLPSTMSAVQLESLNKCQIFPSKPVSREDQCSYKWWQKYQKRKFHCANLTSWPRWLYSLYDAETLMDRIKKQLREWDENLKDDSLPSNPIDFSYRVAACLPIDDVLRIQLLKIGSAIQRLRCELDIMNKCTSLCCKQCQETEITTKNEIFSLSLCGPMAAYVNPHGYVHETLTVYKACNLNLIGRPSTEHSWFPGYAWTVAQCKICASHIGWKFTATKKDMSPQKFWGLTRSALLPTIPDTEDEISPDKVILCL
# [4] = test system: A549; test: Antiproliferative activity against human A549 cells incubated for 72 hrs by MTT assay; type: functional, cell-based; details: A549, 72 h
# [5] = test system: MOLM-13; test: Antiproliferative activity against human MOLM-13 cells incubated for 72 hrs by MTT assay; type: functional, cell-based; details: MOLM-13, 72 h
# [6] = test system: MV4-11; test: Antiproliferative activity against human MV4-11 cells incubated for 72 hrs by MTT assay; type: functional, cell-based; details: MV4-11, 72 h
# [7] = test system: MCF7; test: Antiproliferative activity against human MCF7 cells incubated for 72 hrs by MTT assay; type: functional, cell-based; details: MCF7, 72 h
# [8] = molecular target: CDK9/cyclin T1 (Homo sapiens, UniProt P50750); test: Inhibition of CDK9/cyclin T (unknown origin) using YSPTSPSYSPTSPSYSPTSPKKK or histone H1 as substrate incubated for 2 hrs in presence of [gamma-33P]ATP by radioactive filter binding assay; type: protein-complex assay
# [9] = test system: HepG2; test: Antiproliferative activity against human HepG2 cells incubated for 72 hrs by MTT assay; type: functional, cell-based; details: HepG2, 72 h
# [10] = molecular target: T1, Protein cereblon/Cyclin-dependent kinase 9; test: Protac activity at CRBN/CDK9 in human MOLM-13 cells assessed as CDK9 degradation rate at 500 nM incubated for 6 hrs by Western blot assay relative to control; type: cell-based
# Target sequence in this assay (P50750 whole entry, looked up): as the sequence (P50750 whole entry, looked up) above
# Target sequence in this assay (Q96SW2 whole entry, looked up): as the sequence (Q96SW2 whole entry, looked up) above
# [11] = test system: MV4-11; test: Induction of apoptosis in human MV4-11 cells assessed as viable cells at 500 nM after 6 hrs by AnnexinV-FITC/propidium iodide staining based flow cytometry (reference value: 90.1 %); type: functional; details: read-out: Activity
# [12] = test system: MV4-11; test: Induction of apoptosis in human MV4-11 cells assessed as late apoptotic cells at 500 nM after 6 hrs by AnnexinV-FITC/propidium iodide staining based flow cytometry (reference value: 4.29%); type: functional
# [13] = test system: MV4-11; test: Induction of apoptosis in human MV4-11 cells assessed as necrotic cells at 500 nM after 6 hrs by AnnexinV-FITC/propidium iodide staining based flow cytometry (reference value: 0.16 %); type: functional
# [14] = test system: MV4-11; test: Induction of apoptosis in human MV4-11 cells assessed as early apoptotic cells at 500 nM after 6 hrs by AnnexinV-FITC/propidium iodide staining based flow cytometry (reference value: 5.36 %); type: functional
# [15] = test system: MV4-11; test: Induction of apoptosis in human MV4-11 cells assessed as total apoptotic cells at 500 nM after 6 hrs by AnnexinV-FITC/propidium iodide staining based flow cytometry (reference value: 9.75 %); type: functional
# [16] = molecular target: T1, Protein cereblon/Cyclin-dependent kinase 9; test: Protac activity at CRBN/CDK9 in human MV4-11 cells assessed as induction of CDK9 degradation incubated for 6 hrs by Western blot assay; type: cell-based
# Target sequence in this assay (P50750 whole entry): as the sequence (P50750 whole entry, looked up) above
# Target sequence in this assay (Q96SW2 whole entry): as the sequence (Q96SW2 whole entry, looked up) above
# CDK9/cyclin T1, sequence (O60563 whole entry): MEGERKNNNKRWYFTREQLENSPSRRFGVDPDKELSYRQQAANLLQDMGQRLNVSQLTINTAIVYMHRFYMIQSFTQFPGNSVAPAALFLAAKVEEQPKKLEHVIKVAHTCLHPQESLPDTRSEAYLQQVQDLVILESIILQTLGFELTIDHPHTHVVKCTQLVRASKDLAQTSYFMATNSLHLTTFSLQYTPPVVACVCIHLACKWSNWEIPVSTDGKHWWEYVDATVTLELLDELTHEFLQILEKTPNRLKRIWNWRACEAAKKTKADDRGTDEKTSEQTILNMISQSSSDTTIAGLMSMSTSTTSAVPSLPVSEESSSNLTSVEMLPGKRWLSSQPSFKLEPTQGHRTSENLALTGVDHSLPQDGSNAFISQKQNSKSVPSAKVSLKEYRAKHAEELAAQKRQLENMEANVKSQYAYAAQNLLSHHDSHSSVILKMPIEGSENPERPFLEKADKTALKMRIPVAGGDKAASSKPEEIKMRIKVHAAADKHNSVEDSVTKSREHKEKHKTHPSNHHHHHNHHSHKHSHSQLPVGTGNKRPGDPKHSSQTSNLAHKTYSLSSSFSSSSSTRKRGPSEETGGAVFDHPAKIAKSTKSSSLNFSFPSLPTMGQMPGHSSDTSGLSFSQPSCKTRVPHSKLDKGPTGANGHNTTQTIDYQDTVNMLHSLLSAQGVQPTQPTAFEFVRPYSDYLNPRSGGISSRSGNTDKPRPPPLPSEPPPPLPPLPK
# CDK9/cyclin T1, sequence (P50750 whole entry): as the sequence (P50750 whole entry, looked up) above
SMILES,IC50 [1],IC50 [2],Activity [3],IC50 [4],IC50 [5],IC50 [6],IC50 [7],IC50 [8],IC50 [9],Activity [10],DC50 [16],viability at 0.5 µM [11],Activity [12],Activity [13],Activity [14],Activity [15]
COc1cc(F)ccc1-c1ncnc(Nc2cccc(C[S@](C)(=N)=O)c2)n1 [ATUVECICLIB],1.47 µM,2.94 µM,0%,3.29 µM,0.2 µM,0.56 µM,5.52 µM,,2.7 µM,0%,,78.6%,15.7%,0.26%,4.99%,21.1%
COc1cc(F)ccc1-c1ncnc(Nc2cccc(CS(C)(=O)=NC(=O)CCC(=O)CCC(=O)NCCCCCNc3cccc4c3C(=O)N(C3CCC(=O)NC3=O)C4=O)c2)n1 (configuration not stated),8.64 µM,4.77 µM,67%,11.1 µM,0.74 µM,1.1 µM,15.5 µM,0.0857 µM,8.58 µM,45%,,,,,,
COc1cc(F)ccc1-c1ncnc(Nc2cccc(CS(C)(=O)=NC(=O)CCc3cn(CCCCCC(=O)NCCNc4cccc5c4C(=O)N(C4CCC(=O)NC4=O)C5=O)nn3)c2)n1 (configuration not stated),16.2 µM,16.4 µM,88.8%,8.35 µM,0.99 µM,0.72 µM,24.5 µM,0.0114 µM,10.3 µM,66%,,,,,,
COc1cc(F)ccc1-c1ncnc(Nc2cccc(CS(C)(=O)=NC(=O)COCCOCCOCC(=O)NCCCCCNc3cccc4c3C(=O)N(C3CCC(=O)NC3=O)C4=O)c2)n1 (configuration not stated),3.35 µM,3.1 µM,100%,6.15 µM,0.48 µM,0.25 µM,10.2 µM,0.00935 µM,8.51 µM,99%,,,,,,
COc1cc(F)ccc1-c1ncnc(Nc2cccc(CS(C)(=O)=NC(=O)CCCCCC(=O)NCCCCCNc3cccc4c3C(=O)N(C3CCC(=O)NC3=O)C4=O)c2)n1 (configuration not stated),3.5 µM,1.42 µM,95%,11.9 µM,0.47 µM,0.45 µM,8.02 µM,0.0139 µM,4.15 µM,65%,,,,,,
COc1cc(F)ccc1-c1ncnc(Nc2cccc(CS(C)(=O)=NC(=O)CCc3cn(CCCCCCCC(=O)NCCNc4cccc5c4C(=O)N(C4CCC(=O)NC4=O)C5=O)nn3)c2)n1 (configuration not stated),3.07 µM,5.51 µM,100%,4.14 µM,0.2 µM,0.18 µM,11.4 µM,0.00925 µM,4.65 µM,100%,0.0103 µM,,,,,
COc1cc(F)ccc1-c1ncnc(Nc2cccc(CS(C)(=O)=NC(=O)CCCC(=O)NCCNc3cccc4c3C(=O)N(C3CCC(=O)NC3=O)C4=O)c2)n1 (configuration not stated),22.1 µM,20.6 µM,100%,35.6 µM,2.8 µM,0.46 µM,24.8 µM,0.0127 µM,19.1 µM,99%,0.0273 µM,,,,,
COc1cc(F)ccc1-c1ncnc(Nc2cccc(CS(C)(=O)=NC(=O)CCC(=O)CCC(=O)NCCNc3cccc4c3C(=O)N(C3CCC(=O)NC3=O)C4=O)c2)n1 (configuration not stated),1.75 µM,3 µM,98%,3.21 µM,0.13 µM,0.07 µM,5.18 µM,0.0102 µM,3.36 µM,98%,,,,,,
COc1cc(F)ccc1-c1ncnc(Nc2cccc(CS(C)(=O)=NC(=O)CCCCCC(=O)NCCNc3cccc4c3C(=O)N(C3CCC(=O)NC3=O)C4=O)c2)n1 (configuration not stated),6.68 µM,8.04 µM,88.8%,1.44 µM,1.11 µM,0.18 µM,5.34 µM,0.0144 µM,16.4 µM,66%,,,,,,
COc1cc(F)ccc1-c1ncnc(Nc2cccc(CS(C)(=O)=NC(=O)COCCOCCOCC(=O)NCCNc3cccc4c3C(=O)N(C3CCC(=O)NC3=O)C4=O)c2)n1 (configuration not stated),18.4 µM,12.2 µM,51%,13.2 µM,0.65 µM,0.27 µM,20.8 µM,0.0149 µM,17.5 µM,0%,,,,,,

# Now from value to compound, other results behind:
IC50 [1],IC50 [2],Activity [3],IC50 [4],IC50 [5],IC50 [6],IC50 [7],IC50 [8],IC50 [9],Activity [10],DC50 [16],SMILES,viability at 0.5 µM [11],Activity [12],Activity [13],Activity [14],Activity [15]
> 50 µM,> 50 µM,62%,> 50 µM,> 50 µM,7.71 µM,> 50 µM,8.11 µM,> 50 µM,24%,,COc1cc(N2CCN(CCCCCC(=O)NCCNc3cccc4c3C(=O)N(C3CCC(=O)NC3=O)C4=O)CC2)ccc1-c1ncnc(Nc2cccc(CS(C)(=N)=O)c2)n1 (configuration not stated),,,,,
> 50 µM,> 50 µM,52%,> 50 µM,> 50 µM,3.8 µM,> 50 µM,6.56 µM,> 50 µM,7%,,COc1cc(N2CCN(CCCCCCC(=O)NCCNc3cccc4c3C(=O)N(C3CCC(=O)NC3=O)C4=O)CC2)ccc1-c1ncnc(Nc2cccc(CS(C)(=N)=O)c2)n1 (configuration not stated),,,,,
1.72 µM,3.23 µM,100%,2.28 µM,0.38 µM,0.039 µM,4.79 µM,0.0107 µM,8.61 µM,99%,0.0312 µM,COc1cc(F)ccc1-c1ncnc(Nc2cccc(CS(C)(=O)=NC(=O)CCCCCCCCCC(=O)NCCNc3cccc4c3C(=O)N(C3CCC(=O)NC3=O)C4=O)c2)n1 (configuration not stated),,,,,
> 50 µM,> 50 µM,44%,> 50 µM,> 50 µM,2.6 µM,> 50 µM,6.34 µM,> 50 µM,49%,,COc1cc(N2CCN(CCCCCCCCCC(=O)NCCNc3cccc4c3C(=O)N(C3CCC(=O)NC3=O)C4=O)CC2)ccc1-c1ncnc(Nc2cccc(CS(C)(=N)=O)c2)n1 (configuration not stated),,,,,
> 50 µM,> 50 µM,33%,> 50 µM,> 50 µM,4.9 µM,> 50 µM,6.87 µM,> 50 µM,23%,,COc1cc(N2CCN(CCCCCCCC(=O)NCCNc3cccc4c3C(=O)N(C3CCC(=O)NC3=O)C4=O)CC2)ccc1-c1ncnc(Nc2cccc(CS(C)(=N)=O)c2)n1 (configuration not stated),,,,,
